Source: US20070248619A1, “New pharmaceutical composition from natural materials for regulating immunity, its preparation method and use” (priority 2006, published 2007)
Values joined by “and” are separate entries in the source; they are usually repeats but may differ in a detail not shown here. Identical values can stand only once.

Legend:
C8166 cells [1] = type: cell-based
Description: 50□1 medium was added into half of the holes on the culture plate and 50□1 diluted supernatant fluid of HIV-1, in which the value of M.O.I was 0.0089, was added into the other half of the holes on the culture plate. At the same time, the blank control holes without the drug (the negative control) were set and the control culture holes with positive drug AZT (the positive control) were set too. They were put into 5%CO2 incubator under 37 °C for three days. The survival rate of cells was determined by MTT method. OD values (595 nm/630 nm) were determined by ELx800ELISA Reader. The following formulae were used to calculate the survival rate of normal cells caused by the drug and the protective rate of the drug for HIV-1-infected cells. Survival rate of normal cells (%) =OD value of the experimental hole/OD value of negative control hole □ 100%

C8166 cells [2] = type: cell-based; conditions: C8166, three days, MTT; one value per date of experiment
HIV-1 [3] = conditions: C8166 + HIV-1, M.O.I 0.0089, three days; one value per date of experiment
Description: 50□1 diluted supernatant fluid of HIV-1 was added to the mixture and the value of M.O.I was 0.0089. At the same time, the control hole without the drug and the control hole with positive drug AZT were set. They were put into 5%CO2 incubator under 37? for three days. The amount of syncytium was counted under an inverted microscope (100×□) (in five visual fields). IC50, that is, the concentration of the drugs inhibiting 50% syncytium formation, was determined.

HIV-1 [4] = conditions: HIV-1-infected C8166, three days, MTT
Description: 50□1 medium was added into half of the holes on the culture plate and 50□1 diluted supernatant fluid of HIV-1, in which the value of M.O.I was 0.0089, was added into the other half of the holes on the culture plate. At the same time, the blank control holes without the drug (the negative control) were set and the control culture holes with positive drug AZT (the positive control) were set too. They were put into 5%CO2 incubator under 37 °C for three days. The survival rate of cells was determined by MTT method. OD values (595 nm/630 nm) were determined by ELx800ELISA Reader. […] Survival rate of normal cells (%) =OD value of the experimental hole/OD value of negative control hole □ 100%
Protective rate of infected cells (%)=(OD value of the experimental hole—OD value of positive control hole)/(OD value of negative control hole—OD value of positive control hole) □ 100%

[5] = Clinical trial in type 2 diabetes patients; type: in vivo, human; conditions: 52 cases per group
Description: According to diagnostic criteria of diabetes by WHO(1985), 104 diabetes patients were diagnosed to have type 2 diabetes. Wherein, 56 patients were male and 48 patients were female at average age of […]. All of them had diabetes for […] years. They were divided into two groups at random:
Group A: treatment group administrated the granules of example 1
Group B: control group administrated Micronase (produced by Shandong Boshan Pharmaceutical Factory, Batch: 990917)
Control group: Micronase was orally taken at 30 minutes before meal in three times per day and 2.5 mg(tablet) each time.

Row | Structure (SMILES) | TC50 obtained by protective experiment (toxic effects on normal cells) (C8166 cells [1]) [µg/mL] | TC50 (concentration causing the death of 50% the cells) (C8166 cells [2]) [µg/mL] | IC50 inhibiting syncytium formation (head prints TC50) (HIV-1 [3]) | IC50 (EC50 of protective effects on infected cells) (HIV-1 [4]) [µg/mL] | blood sugar at 2 hours after meal, mean before therapy ([5]; baseline) | fasting blood sugar, mean before therapy ([5]; baseline) | blood sugar at 2 hours after meal, mean after therapy ([5]; therapy for 3 months) | fasting blood sugar, mean after therapy ([5]; therapy for 3 months)
1 | Cc1cn([C@H]2C[C@H](N=[N+]=[N-])[C@@H](CO)O2)c(=O)[nH]c1=O [AZT] | >50 | >50 | 0.23 µg/mL and 0.18 µg/mL | 0.15 | – | – | – | –
2 | COc1ccc(Cl)cc1C(=O)NCCc1ccc(S(=O)(=O)NC(=O)NC2CCCCC2)cc1 [Micronase] | – | – | – | – | 14.67 ± 1.49 | 9.53 ± 1.46 | 12.14 ± 2.53 | 6.53 ± 1.53
